Source: BindingDB's records for patent US8802711 (Abbvie, 2014)

Target: Transient receptor potential cation channel subfamily V member 1 (Homo sapiens, UniProt Q8NER1)
Assay: FLIPR Assay
Procedure: All compounds were tested over a 12-point one-third-log concentration range. Compound stocks, 10 mM, were prepared in DMSO, and diluted serially across a 384-well plate using a Bravo BenchCel workstation (Agilent Technologies, Santa Clara, Calif.).

Sequence of Transient receptor potential cation channel subfamily V member 1 (Q8NER1 whole entry): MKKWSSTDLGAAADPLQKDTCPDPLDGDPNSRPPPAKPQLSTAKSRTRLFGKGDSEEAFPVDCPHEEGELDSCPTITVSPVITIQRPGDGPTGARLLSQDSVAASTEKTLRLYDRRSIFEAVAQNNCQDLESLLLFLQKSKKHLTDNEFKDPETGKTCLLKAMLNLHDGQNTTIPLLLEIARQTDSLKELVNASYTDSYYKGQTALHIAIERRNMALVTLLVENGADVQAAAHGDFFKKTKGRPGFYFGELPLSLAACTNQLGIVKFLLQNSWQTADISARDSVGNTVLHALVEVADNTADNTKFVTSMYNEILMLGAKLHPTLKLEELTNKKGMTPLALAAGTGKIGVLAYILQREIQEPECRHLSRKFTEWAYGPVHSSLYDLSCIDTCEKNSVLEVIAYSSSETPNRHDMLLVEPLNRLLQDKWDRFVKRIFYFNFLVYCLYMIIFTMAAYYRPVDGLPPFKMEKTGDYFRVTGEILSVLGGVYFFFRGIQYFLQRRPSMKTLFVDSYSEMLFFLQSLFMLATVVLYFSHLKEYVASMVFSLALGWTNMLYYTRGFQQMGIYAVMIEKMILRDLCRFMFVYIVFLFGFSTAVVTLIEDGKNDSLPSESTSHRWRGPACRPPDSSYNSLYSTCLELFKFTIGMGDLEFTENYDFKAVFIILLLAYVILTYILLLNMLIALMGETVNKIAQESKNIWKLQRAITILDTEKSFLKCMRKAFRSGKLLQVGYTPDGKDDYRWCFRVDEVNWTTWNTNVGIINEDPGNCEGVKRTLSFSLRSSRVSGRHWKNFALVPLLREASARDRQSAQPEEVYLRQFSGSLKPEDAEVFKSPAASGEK

SMILES: Cc1cccnc1N1CC=C(C(=O)Nc2ccc(C(=O)NC(F)(F)F)cc2)CC1 [US8802711, L]
- IC50: 0.1 µM
